Article PMC11202169, “A Novel Fluorescence-Based Microplate Assay for High-Throughput Screening of hSULT1As Inhibitors” (Biosensors, 2024)
Counter-ions that a name gives are not always drawn.

Tests used:
[1] = Fluorescence quantum yield; assay type: physicochemical; details: physiological conditions; standard quinine sulfate (Φ = 0.55)
Procedure: The fluorescence quantum yield is defined as the ratio of the number of photons emitted to the number of photons absorbed, which is a key parameter in fluorescence spectroscopy that describes the efficiency of the fluorescence process. The fluorescence quantum yields (Φ) of HN-241 and HN-241 sulfate were measured using quinine sulfate in 50 mM aqueous H2SO4 (Φ = 0.55) as the standard, and calculated according to the following Equation (1). (1) Yu=Ys × Fu × As/Fs × Au
“A” represents the absorbance at the excitation wavelength, “F” denotes the integral fluorescence intensity, and the subscripts “s” and “u” refer to the standard and sample, respectively.

[2] = test system: hSULT1As; assay: O-sulfation and spectroscopic changes with hSULT1As (statements for all isoforms together); assay type: biochemical, human; details: substrate 10 μM, all tested hSULT1A isozymes
Procedure: (§1) The incubation system consisted of Tris-HCl buffer (pH 7.4, 50 mM), MgCl2 (5 mM), DTT (200 μM), recombinant hSULT1As (29 pmol), and each fluorophore or 4-HN derivative (10 μM). After pre-incubation at 37 °C for 3 min, the reaction was initiated by adding an excess of PAPS (200 μM). Following 1 h incubation, the reaction was terminated with the addition of an equal volume of ice-cold acetonitrile. After centrifugation at 20,000× g for 20 min at 4 °C, the supernatant was collected for HPLC analysis. The mobile phase consisted of 10 mM aqueous ammonium acetate (A) and acetonitrile (B) at a flow rate of 0.4 mL/min. Gradient elution was performed under the following conditions: 0–2.0 min, 5% B; 2.0–10.0 min, 5–95% B; 10.0−12.0 min, 95% B; 12.0–12.5 min, 95–5% B; and 12.5–15.0 min, 5% B.
The spectroscopic changes in these fluorophores following O-sulfation were investigated. The incubation system was the same as that used in Section 2.3. The emission spectra of eight fluorophores in the presence and absence of three hSULT1A isoforms were determined using BioTek Synergy H1.

[3] = target: T1, hSULT1A2 (Homo sapiens, UniProt P50226); assay: Enzymatic kinetics of hSULT1A2-catalyzed HN-241 4-O-sulfation; assay type: biochemical
T1 construct: 6-histidine tag (N); TEV site (N); made in house; host or cells: Escherichia coli BL21 (DE3), pET29a(+)
Procedure: (§2) The enzymatic kinetic parameters of hSULT1As-catalyzed HN-241 4-O-sulfation were measured by incubating increasing concentrations of HN-241 with each of the hSULT1As for a certain period. The fitting equations included Equation (2), the Michaelis–Menten equation, and Equation (3) for enzyme kinetics with substrate inhibition. Related kinetic parameters were fitted by GraphPad Prism 8.0 (San Diego, CA, USA). (2) V=Vmax × [S]/Km+[S] (3) V=Vmax × [S]/Km+[S](1+[S]/Ki)
(§3) [S] refers to the concentration of HN-241, Vmax is the maximum rate of hSULT1As-catalyzed HN-241 4-O-sulfation, Km is the substrate concentration at the half Vmax, and Ki represents the dissociation constant for the binding of the substrate to the inhibitory site.

[4] = target: T2, hSULT1A1 (Homo sapiens, UniProt P50225); assay: Enzymatic kinetics of hSULT1A1-catalyzed HN-241 4-O-sulfation; assay type: biochemical
T2 construct: 6-histidine tag (N); TEV site (N); made in house; host or cells: Escherichia coli BL21 (DE3), pET29a(+)
Procedure: as §2, §3

[5] = target: T3, hSULT1A3 (Homo sapiens, UniProt P0DMM9); assay: Enzymatic kinetics of hSULT1A3-catalyzed HN-241 4-O-sulfation; assay type: biochemical
T3 construct: 6-histidine tag (N); TEV site (N); made in house; host or cells: Escherichia coli BL21 (DE3), pET29a(+)
Procedure: as §2, §3

[6] = target: T2, hSULT1A1; assay: hSULT1As reaction phenotyping assay (HPLC), hSULT1A1; assay type: biochemical; details: for Sulfation rate: peak area of the sulfated metabolite detected by HPLC, hSULT1A1: fluorophore 10 μM, PAPS 200 μM, 1 h, 37 °C
Procedure: as §1

[7] = target: T1, hSULT1A2; assay: hSULT1As reaction phenotyping assay (HPLC), hSULT1A2; assay type: biochemical; details: for Sulfation rate: peak area of the sulfated metabolite detected by HPLC, hSULT1A2: fluorophore 10 μM, PAPS 200 μM, 1 h, 37 °C
Procedure: as §1

[8] = test system: hSULT1As; set-up: method as in PMID 12264750, PMID 35713964, PMID 6786543; details: ascorbic acid as competitive inhibitor of hSULT1As; ref [13],[14],[15]; cited from earlier work
[9] = target: T3, hSULT1A3; assay: hSULT1As reaction phenotyping assay (HPLC), hSULT1A3; assay type: biochemical; details: fluorophore 10 μM, PAPS 200 μM, 1 h, 37 °C
Procedure: as §1

T1 sequence (P50226 whole entry): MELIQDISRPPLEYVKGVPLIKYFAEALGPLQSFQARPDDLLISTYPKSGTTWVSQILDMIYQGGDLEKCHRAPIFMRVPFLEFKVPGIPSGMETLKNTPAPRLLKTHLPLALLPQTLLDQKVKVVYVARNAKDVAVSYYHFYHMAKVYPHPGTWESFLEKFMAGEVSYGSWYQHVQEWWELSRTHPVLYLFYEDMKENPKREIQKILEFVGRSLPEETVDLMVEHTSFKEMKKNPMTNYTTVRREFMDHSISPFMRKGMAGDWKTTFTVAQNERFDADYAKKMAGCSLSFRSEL
T2 sequence (P50225 whole entry): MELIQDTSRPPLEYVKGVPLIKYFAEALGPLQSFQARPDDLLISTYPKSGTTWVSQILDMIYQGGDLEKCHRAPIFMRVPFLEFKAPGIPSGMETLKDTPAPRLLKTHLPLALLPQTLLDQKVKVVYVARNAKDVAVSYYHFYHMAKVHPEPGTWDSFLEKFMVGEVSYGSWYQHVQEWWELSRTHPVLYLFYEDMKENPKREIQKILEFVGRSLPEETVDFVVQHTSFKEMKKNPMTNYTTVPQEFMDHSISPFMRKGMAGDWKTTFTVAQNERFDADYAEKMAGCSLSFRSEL
T3 sequence (P0DMM9 whole entry): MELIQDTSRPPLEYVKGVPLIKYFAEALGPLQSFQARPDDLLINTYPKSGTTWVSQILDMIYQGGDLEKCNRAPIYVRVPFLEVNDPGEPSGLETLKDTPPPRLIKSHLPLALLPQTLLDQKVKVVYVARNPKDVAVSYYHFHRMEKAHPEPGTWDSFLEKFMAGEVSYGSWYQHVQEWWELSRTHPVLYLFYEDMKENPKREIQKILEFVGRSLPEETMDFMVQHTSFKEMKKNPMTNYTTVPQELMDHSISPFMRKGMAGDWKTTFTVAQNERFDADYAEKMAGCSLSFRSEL

| SMILES | O-sulfation by hSULT1As (in words) [2] | Sulfation rate: peak area of the sulfated metabolite detected by HPLC, hSULT1A1 [6] | Sulfation rate: peak area of the sulfated metabolite detected by HPLC, hSULT1A2 [7] | other results |
| --- | --- | --- | --- | --- |
| CCN1C(=O)c2cccc3c(OS(=O)(=O)O)ccc(c23)C1=O [HN-241 sulfate] |  |  |  | Fluorescence quantum yield (Φ) [1]: 0.86 |
| CCN1C(=O)c2cccc3c(O)ccc(c23)C1=O [HN-241, 4-hydroxy-N-ethyl-1,8-naphthalimide] | highest O-sulfation rate |  |  | Fluorescence quantum yield (Φ) [1]: 0.02; Clint ([3]; hSULT1A2): 1440.94 μL/min/mg Protein; Vmax ([3]; hSULT1A2, Michaelis–Menten kinetics): 6441.00 pmol/min/mg Protein; Clint ([4]; HN-241 4-O-sulfation): 24,265.93 μL/min/mg Protein; Ki ([4]; substrate inhibition constant of HN-241 (binding of substrate to the inhibitory site)): 1370 ± 400 nM; Clint ([5]; hSULT1A3): 683.26 μL/min/mg Protein; Vmax ([5]; hSULT1A3, Michaelis–Menten kinetics): 8814.00 pmol/min/mg Protein |
| CN(C)CCN1C(=O)c2cccc3c(O)ccc(c23)C1=O [HN-283] | very slow O-sulfation rates |  |  |  |
| O=C(O)CCCN1C(=O)c2cccc3c(O)ccc(c23)C1=O [HN-299] | very slow O-sulfation rates |  |  |  |
| O=C1c2cccc3c(O)ccc(c23)C(=O)N1CCc1ccccc1 [HN-317] | very slow O-sulfation rates |  |  |  |
| O=C1c2cccc3c(O)ccc(c23)C(=O)N1CCc1ccc(F)cc1 [HN-335] | very slow O-sulfation rates |  |  |  |
| Cc1ccc(NC(=O)CCCN2C(=O)c3cccc4c(O)ccc(c34)C2=O)cc1 [HN-388] |  |  |  | O-sulfation in hSULT1A1 (in words) ([6]; 4-HN derivative 10 μM): rapidly metabolized; O-sulfation in hSULT1A2 (in words) ([7]; 4-HN derivative 10 μM): scarcely metabolized |
| O=C1O[C@H]([C@@H](O)CO)C(O)=C1O [ascorbic acid] |  |  |  | Boost of the bioavailability of ethinylestradiol [8]: approximately 50% |
| O=c1ccc2nc3ccc(O)cc3oc-2c1 [fluorophore A] |  | ++ (“++” and “+++” denote ranges from 10,000 to 50,000, and greater than 50,000, respectively) | + (“+” shows the peak area of the sulfated metabolites of each fluorophore detected by HPLC, ranging from 0 to 10,000) |  |
| CCCCN1C(=O)c2cccc3c(O)ccc(c23)C1=O [fluorophore B, 4-hydroxy-N-butyl-1,8-naphthalimide] |  | ++ (“++” and “+++” denote ranges from 10,000 to 50,000, and greater than 50,000, respectively) | ++ (“++” and “+++” denote ranges from 10,000 to 50,000, and greater than 50,000, respectively) | Sulfation rate: peak area of the sulfated metabolite detected by HPLC, hSULT1A3 [9]: ++ (“++” and “+++” denote ranges from 10,000 to 50,000, and greater than 50,000, respectively) |
| CC1=[N+]2C(=C(c3ccc(O)cc3)c3ccc(C)n3[B-]2(F)F)C=C1 [fluorophore C] | could not be sulfated |  |  |  |
| N#CC(C#N)=C1C=C(/C=C/c2ccc(O)cc2)Oc2ccccc21 [fluorophore D] |  | +++ (“++” and “+++” denote ranges from 10,000 to 50,000, and greater than 50,000, respectively) | ++ (“++” and “+++” denote ranges from 10,000 to 50,000, and greater than 50,000, respectively) |  |
| CC1(C)OC(=C(C#N)C#N)C(C#N)=C1/C=C/c1cc2ccc(O)cc2oc1=O [fluorophore E] |  | + (“+” shows the peak area of the sulfated metabolites of each fluorophore detected by HPLC, ranging from 0 to 10,000) | +++ (“++” and “+++” denote ranges from 10,000 to 50,000, and greater than 50,000, respectively) | Sulfation rate: peak area of the sulfated metabolite detected by HPLC, hSULT1A3 [9]: +++ (“++” and “+++” denote ranges from 10,000 to 50,000, and greater than 50,000, respectively) |
| CC1(C)OC(=C(C#N)C#N)C(C#N)=C1/C=C/c1ccc2cc(O)ccc2c1 [fluorophore F] |  | +++ (“++” and “+++” denote ranges from 10,000 to 50,000, and greater than 50,000, respectively) | + (“+” shows the peak area of the sulfated metabolites of each fluorophore detected by HPLC, ranging from 0 to 10,000) |  |
| CCCCN1C(=O)c2cccc3c4c(cc(c23)C1=O)C(C)(C)C(/C=C/c1ccc(O)cc1)=N4 [fluorophore G] | could not be sulfated |  |  |  |
| CC[n+]1ccc(/C=C/c2ccc(-c3ccc(O)cc3)s2)c2ccccc21 [fluorophore H] | highest O-sulfation rate | +++ (“++” and “+++” denote ranges from 10,000 to 50,000, and greater than 50,000, respectively) | ++ (“++” and “+++” denote ranges from 10,000 to 50,000, and greater than 50,000, respectively) | Sulfation rate: peak area of the sulfated metabolite detected by HPLC, hSULT1A3 [9]: +++ (“++” and “+++” denote ranges from 10,000 to 50,000, and greater than 50,000, respectively) |
